Values joined by “and” are separate entries in the source; they are usually repeats but may differ in a detail not shown here. Equal entries are not always repeated.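 Method: 48-hour compound exposure of cells in 96-well plates, five concentrations, linear interpolation of endpoints. GI50 is the concentration that inhibits growth by half. The concentration for full growth arrest is given as TGI.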
Experiments:
Assay in all cases: NCI tumour cell line growth inhibition, 48 h
[1] = test system: T-47D breast
[2] = test system: MCF7 breast
[3] = test system: NCI/ADR-RES ovarian
[4] = test system: MDA-N
[5] = test system: LXFL 529 NSCLC
[6] = test system: XF 498 CNS
[7] = test system: DMS 273 small cell lung
[8] = test system: HOP-18 NSCLC
[9] = test system: RXF-631 renal

| SMILES | GI50 [1] | TGI [1] | GI50 [2] [µM] | TGI [2] [µM] | GI50 [3] | TGI [3] | TGI [5] [µM] | further results |
| --- | --- | --- | --- | --- | --- | --- | --- | --- |
| NC(=NC1CCCCCCC1)c1ccc(N2CCN(c3ccc(C(N)=NC4CCCCCCC4)cc3)CC2)cc1 | 25.8 µM | > 100 µM | 5.77 | > 100 | > 100 µM | > 100 µM |  |  |
| Cc1ccc2c(c1C)-c1c(ccc(C)c1C)C(=O)C2=O |  | 44.3 µM |  | 0.809 |  | 0.384 µM |  | TGI [4]: 0.348 µM |
| Cc1cc(C)c2c(c1)Nc1ccccc1P2c1ccccc1 (stereo not drawn) |  |  |  |  |  |  | > 100 | TGI [6]: 33.3 µM; TGI [7]: 50.7 µM |
| C=CC1=C[C@@H]2[C@@H]3O[C@]4(CC[C@H](O4)[C@@H](C)C[C@@H](O)C3=O)C[C@H](O)C3=NCC[C@@]32CC1 | < 0.00333 µM | 0.00634 µM | < 0.00333 | < 0.00333 | < 0.00333 µM | 0.00511 µM |  |  |
| N#C/C(=C1\NN=C(N)C(c2ccc(Cl)cc2)=C1O)c1ccc(Cl)cc1 |  |  |  |  |  |  | > 100 | TGI [6]: > 100 µM; TGI [8]: > 100 µM; TGI [7]: > 100 µM |
| CC1=CCC(OC(=O)C(C)(C)CCC(O)(C(=O)OC2(C(C)C)CCC3(C)OC3C2)C(C)C)(C(C)C)CC1 (stereo not drawn) | 0.152 µM | 1.24 µM | 0.121 | 0.448 | 0.635 µM | 2.63 µM |  |  |
| O=c1c2cccc3cccc(c4oc5c6cccc7cccc(c(=O)c5c14)c76)c32 |  |  |  |  |  |  | 15.8 | TGI [9]: 19.3 µM; TGI [8]: 24.8 µM; TGI [7]: 17.9 µM |
| COc1ccc(C(=O)COc2cccc(/C=C3\CSc4ccccc4C3=O)c2)cc1 | 2.33 µM | 5.79 µM | 0.537 | 2.22 | 3.08 µM | 9.64 µM |  |  |
| CC(=O)Nc1ccccc1C=C1c2ccccc2-c2ccccc21 |  | > 100 µM |  | 50.3 |  | 66.7 µM |  | TGI [4]: > 100 µM |
| COc1ccc2c(c1)c(-c1nc(-c3c[nH]c4ncccc34)cs1)cn2CCCCN1CCOCC1 | 2.12 µM | 6.5 µM | 1.56 | 3.56 | 2.34 µM | 5.78 µM |  |  |
| COCC1N=C(c2cc(OC)c(OC)c(OC)c2-c2cc3c(cc2C2OCCCO2)OCO3)O[C@H]1c1ccccc1 (stereo partly drawn) |  |  |  |  |  |  |  | TGI [7]: > 100 µM |
| O=C(O)CCSCCCN1C(=O)c2ccccc2C1=O |  |  |  |  |  |  | > 100 |  |
| O=C(/C=C/c1ccc(Cl)c(Cl)c1)c1ccc(F)cc1 |  |  |  |  |  |  | 27.7 | TGI [9]: > 100 µM; TGI [8]: 50.2 µM; TGI [7]: 26.9 µM |
| CC1CC2C(=O)N(c3ccccc3)C(=O)C2c2c1c1ccccc1n2Cc1ccccc1 (stereo not drawn) |  |  |  |  |  |  | > 100 |  |
| CN(C)c1ccc(-c2cc(-c3ccc(Nc4nc(Nc5ccccc5)nc(Nc5ccc(Cl)cc5)n4)cc3)nc(N)n2)cc1 | 3.04 µM | 17.9 µM | 2.84 | 15 | 9.23 µM | > 100 µM |  |  |
| c1cc(CCN2CCCCC2)ccn1 |  | > 100 µM |  | > 100 |  | > 100 µM |  | TGI [4]: > 100 µM |
| Cn1ccc2c(c1=O)C(=O)c1nccc3c1c-2nc1ccccc13 | 1.8 µM | 3.74 µM | 0.871 | 2.34 |  |  |  |  |
| O=C1/C(=C/c2ccccc2F)CNC/C1=C\c1ccccc1F | 1.07 µM and 2.6 µM | 6.1 µM and 12.2 µM | 0.305 | 1.39 | 0.665 µM and 0.699 µM | 6.57 µM and 12.8 µM |  | GI50 [4]: 0.485 µM; TGI [4]: 1.71 µM |

| SMILES | GI50 [1] | TGI [1] | GI50 [2] [µM] | TGI [2] [µM] | GI50 [3] | TGI [3] | TGI [5] [µM] | further results |
| --- | --- | --- | --- | --- | --- | --- | --- | --- |
| COC(=O)c1cc(-c2cc(OC)c(OC)c(OC)c2)[nH]c1N/N=C/c1c(Cl)cccc1Cl | 1.92 µM | 6.29 µM | 1.77 | 53 | 1.46 µM | 18.4 µM |  |  |
| COc1ccc(C(=O)/C=C/c2c(C(F)(F)F)nc3sccn23)cc1OC | 2.9 µM | 40.7 µM | 0.766 | 34.9 | 1.88 µM | 10.6 µM |  |  |
| Cc1cc(NC(=O)NC(=O)c2ccccc2N)ccc1Oc1ncc(Br)cn1 |  | > 24.4 µM |  | 18.6 |  |  | > 57.2 | TGI [6]: 67.6 µM; TGI [8]: > 78 µM |
| N#Cc1c(N)nc(N2CCOCC2)c(C#N)c1-c1ccc(Cl)cc1 | 16.1 µM | > 100 µM | 23.2 | > 100 | 23.6 µM | 76.2 µM |  |  |
| CCN1CCN(CC(=O)Nc2nc3ccc(NCc4ccc(Cl)cc4)cc3s2)CC1 | 1.94 µM | 5.8 µM |  |  | 2.88 µM | > 100 µM |  |  |
| O=c1c(Sc2c(O)c3ccccc3c3ccccc3c2=O)c(O)c2ccccc2c2ccccc12 |  |  |  |  |  |  | > 100 | TGI [9]: > 100 µM; TGI [8]: > 100 µM; TGI [7]: > 100 µM |
| CC1CC(c2cccc3c2OCO3)=Nc2ccccc2S1 (stereo not drawn) |  |  |  |  |  |  | > 100 | TGI [6]: > 100 µM; TGI [7]: > 100 µM |
| CC(=O)NCCSC(=O)c1ccccc1 |  |  |  |  |  | 0.688 µM |  |  |
| COc1cc2c3c(n(CCCNCC(OC)OC)c(=O)c2cc1OC)-c1cc2c(cc1C3=O)OCO2 |  |  | < 0.0315 | > 48.6 | 0.338 µM | 29.3 µM |  |  |
| C=C(C)[C@@H]1CC[C@]2(C(=O)NCCNCCNCCN)CC[C@]3(C)[C@H](CC[C@@H]4[C@@]5(C)CC[C@H](O)C(C)(C)[C@@H]5CC[C@]43C)[C@@H]12 | 10.9 µM | 32.3 µM | 13.2 | 29.3 | 18.9 µM | 59 µM |  |  |
| C=CCNCCCN1C(=O)c2ccc3c4c(ccc(c24)C1=O)C(=O)N(CCCNCC=C)C3=O |  |  | 0.157 | 0.336 | 1.74 µM | 12.6 µM |  |  |
| Cc1ccc(NC(=O)c2cc3ccccc3c(N=Nc3ccccc3O)c2O)c(C)c1 |  |  |  | 13.7 |  | 5.71 µM |  |  |
| CN1CCN(c2nc(NCCCCNc3ccnc4cc(Cl)ccc34)c3ccccc3n2)CC1 | 2.23 µM | 6.65 µM | 4.3 | 19.1 | 19 µM | 56.1 µM |  |  |
| COC1(O)C(=O)c2ccccc2OC1(OC)c1ccccc1 (stereo not drawn) |  | > 100 µM |  | > 100 |  | > 100 µM |  | TGI [4]: > 100 µM |
| C=C1C(=O)OC2C1CC[C@H](C)C13OC(=O)CC1[C@@]23C (stereo partly drawn) |  |  |  |  |  |  | > 100 | TGI [7]: > 100 µM |
| CCc1cccc2c3c(sc12)C(c1ccc(Cl)cc1)C(C#N)=C(N)O3 (stereo not drawn) | 0.493 µM | 16.1 µM | 0.334 | 4.66 | 0.349 µM | 2.24 µM |  |  |
| O=C1/C(=C/c2ccc3c(c2)OCO3)CCC1CN1CCOCC1 (stereo not drawn) |  | 42.3 µM |  |  |  |  | 7.68 | TGI [4]: 4.07 µM; TGI [9]: 44.7 µM; TGI [8]: 31.4 µM; TGI [7]: 25.3 µM |
